# From patent publication US7659404B2, “Broad spectrum 2-(substituted-amino)-benzothiazole sulfonamide HIV protease inhibitors” (Tibotec Pharmaceuticals Ltd., priority 2001, dated 2010)
# Key:
# [1] = tested on: clinically isolated HIV strain J; type: cell-based; conditions: FR=EC50(mutant strain)/EC50(HIV-1 strain LAI)
# Description: (§1) HIV- or mock-infected MT4 cells were incubated for five days in the presence of various concentrations of the inhibitor. […] Cell viability is measured by measuring the concentration of MTT, a yellow, water soluble tetrazolium dye that is converted to a purple, water insoluble formazan in the mitochondria of living cells only. Upon solubilization of the resulting formazan crystals with isopropanol, the absorbance of the solution is monitored at 540 nm. The values correlate directly to the number of living cells remaining in the culture at the completion of the five day incubation. The inhibitory activity of the compound was monitored on the virus-infected cells and was expressed as EC50 and EC90. These values represent the amount of the compound required to protect 50% and 90%, respectively, of the cells from the cytopathogenic effect of the virus. The toxicity of the compound was measured on the mock-infected cells and was expressed as CC50, which represents the concentration of compound required to inhibit the growth of the cells by 50%. The selectivity index (SI) (ratio CC50/EC50) is an indication of the selectivity of the anti-HIV activity of the inhibitor.
# (§2) Because of the increasing emergence of drug resistant HIV strains, the present compounds were tested for their potency against clinically isolated HIV strains harboring several mutations.
# (§3) As a measure of the broad spectrum activity of the present compounds, the fold resistance (FR) defined as FR=EC50(mutant strain)/EC50(HIV-1 strain LAI).
# [2] = tested on: clinically isolated HIV strain H; type: cell-based; conditions: FR=EC50(mutant strain)/EC50(HIV-1 strain LAI)
# Description: as §1, §2, §3
# [3] = tested on: clinically isolated HIV strain O; type: cell-based; conditions: FR=EC50(mutant strain)/EC50(HIV-1 strain LAI)
# Description: as §1, §2, §3
# [4] = tested on: clinically isolated HIV strain I; type: cell-based; conditions: FR=EC50(mutant strain)/EC50(HIV-1 strain LAI)
# Description: as §1, §2, §3
# [5] = tested on: clinically isolated HIV strain T; type: cell-based; conditions: FR=EC50(mutant strain)/EC50(HIV-1 strain LAI)
# Description: as §1, §2, §3
# [6] = tested on: virus strain S (R13080); experiment: microbe, parasite or virus in culture; type: cell-based, HIV; conditions: FR=EC50(mutant strain)/EC50(HIV-1 strain LAI); strain S
# Summary of the method: (§4)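 MT4 cells, HIV- or mock-infected, were cultured five days with a range of inhibitor concentrations, and viability was then read by MTT conversion to formazan (isopropanol-solubilized, A540 nm). EC50/EC90 are the concentrations protecting 50%/90% of infected cells from viral cytopathic effect. Fold resistance = EC50(mutant strain)/EC50(HIV-1 LAI).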
# [7] = tested on: virus strain F (R13025); experiment: microbe, parasite or virus in culture; type: cell-based, HIV; conditions: FR=EC50(mutant strain)/EC50(HIV-1 strain LAI); strain F
# Summary of the method: as §4
smiles,measurement,setting,value
CC(C)CN(C[C@@H](O)[C@H](Cc1ccccc1)NC(=O)OCc1cncs1)S(=O)(=O)c1ccc2nc(NCCN3CCCC3)sc2c1 [Compound 49],"fold resistance (FR), strain J",[1],5.5
same,"fold resistance (FR), strain H",[2],3.6
same,"fold resistance (FR), strain O",[3],3.9
same,"fold resistance (FR), strain I",[4],2.9
same,"fold resistance (FR), strain T",[5],114.0
same,"fold resistance (FR), strain S",[6],17.8
same,"fold resistance (FR), strain F",[7],12.8
CC(C)CN(C[C@@H](O)[C@H](Cc1ccccc1)NC=O)S(=O)(=O)c1ccc2nc(NC(=O)CN3CCCC3)sc2c1 [Compound 55],"fold resistance (FR), strain J",[1],26.2
same,"fold resistance (FR), strain H",[2],10.0
same,"fold resistance (FR), strain O",[3],26.2
same,"fold resistance (FR), strain I",[4],9.1
same,"fold resistance (FR), strain T",[5],26.2
same,"fold resistance (FR), strain S",[6],26.2
same,"fold resistance (FR), strain F",[7],26.2
CC(C)CN(CC(O)C(Cc1ccccc1)NC(=O)OC1CNC(=O)C1)S(=O)(=O)c1ccc2nc(NC(=O)CN(C)C)sc2c1 (stereo not drawn) [Compound 36],"fold resistance (FR), strain J",[1],0.2
same,"fold resistance (FR), strain H",[2],0.6
same,"fold resistance (FR), strain O",[3],0.2
same,"fold resistance (FR), strain I",[4],0.5
same,"fold resistance (FR), strain T",[5],0.2
same,"fold resistance (FR), strain S",[6],0.2
same,"fold resistance (FR), strain F",[7],0.2
CC(C)CN(C[C@@H](O)[C@H](Cc1ccccc1)NC(=O)O[C@H]1CO[C@H]2OCC[C@H]21)S(=O)(=O)c1ccc2nc(NCCN(C)C(=O)OC(C)(C)C)sc2c1 [Compound 21],"fold resistance (FR), strain J",[1],3.3
same,"fold resistance (FR), strain H",[2],4.8
same,"fold resistance (FR), strain O",[3],3.4
same,"fold resistance (FR), strain I",[4],3.7
same,"fold resistance (FR), strain T",[5],380.0
same,"fold resistance (FR), strain S",[6],38.6
same,"fold resistance (FR), strain F",[7],16.6
CC(=O)N(C)c1nc2ccc(S(=O)(=O)N(CC(C)C)C[C@@H](O)[C@H](Cc3ccccc3)NC(=O)c3cccc(N)c3C)cc2s1 [Compound 82],"fold resistance (FR), strain J",[1],5.5
same,"fold resistance (FR), strain H",[2],5.0
same,"fold resistance (FR), strain O",[3],8.0
same,"fold resistance (FR), strain I",[4],4.4
same,"fold resistance (FR), strain T",[5],214.1
same,"fold resistance (FR), strain S",[6],17.9
same,"fold resistance (FR), strain F",[7],13.8
CC(=O)N(C)c1nc2ccc(S(=O)(=O)N(CC(C)C)C[C@@H](O)[C@H](Cc3ccccc3)NC(=O)COc3c(C)cccc3C)cc2s1 [Compound 77],"fold resistance (FR), strain J",[1],11.0
same,"fold resistance (FR), strain H",[2],2.2
same,"fold resistance (FR), strain O",[3],11.7
same,"fold resistance (FR), strain I",[4],8.3
same,"fold resistance (FR), strain T",[5],144.7
same,"fold resistance (FR), strain S",[6],11.6
same,"fold resistance (FR), strain F",[7],8.9
Cc1c(N)cccc1C(=O)N[C@@H](Cc1ccccc1)[C@H](O)CN(CC(C)C)S(=O)(=O)c1ccc2nc(NC(=O)CN3CCCC3)sc2c1 [Compound 62],"fold resistance (FR), strain J",[1],2.4
same,"fold resistance (FR), strain H",[2],3.2
same,"fold resistance (FR), strain O",[3],2.7
same,"fold resistance (FR), strain I",[4],2.8
same,"fold resistance (FR), strain T",[5],277.9
same,"fold resistance (FR), strain S",[6],16.1
same,"fold resistance (FR), strain F",[7],14.5
CCOC(=O)N(CCN(C)C)c1nc2ccc(S(=O)(=O)N(CC(C)C)C[C@@H](O)[C@H](Cc3ccccc3)NC(=O)O[C@H]3CO[C@H]4OCC[C@H]43)cc2s1 [Compound 28],"fold resistance (FR), strain J",[1],0.7
same,"fold resistance (FR), strain H",[2],1.8
same,"fold resistance (FR), strain O",[3],0.8
same,"fold resistance (FR), strain I",[4],1.4
same,"fold resistance (FR), strain T",[5],12.7
same,"fold resistance (FR), strain S",[6],4.4
same,"fold resistance (FR), strain F",[7],2.3
CC(C)CN(C[C@@H](O)[C@H](Cc1ccccc1)NC(=O)OCc1cccnc1)S(=O)(=O)c1ccc2nc(NC(=O)CN3CCCC3)sc2c1 [Compound 61],"fold resistance (FR), strain J",[1],10.6
same,"fold resistance (FR), strain H",[2],5.2
same,"fold resistance (FR), strain O",[3],7.1
same,"fold resistance (FR), strain I",[4],4.8
same,"fold resistance (FR), strain T",[5],1090.0
same,"fold resistance (FR), strain S",[6],80.0
same,"fold resistance (FR), strain F",[7],32.7
